# Source: paper PMC4249827, “A Novel CMKLR1 Small Molecule Antagonist Suppresses CNS Autoimmune Inflammatory Disease” (PLoS ONE, 2014)
# Key:
# [1] = test system: Nuclear factor of activated T cells (NFAT); design: method as in PubChem, 2014a; conditions: Cell-based; ref PubChem, 2014a; cited from earlier work
# [2] = test system: IL-6/STAT signaling; design: method as in PubChem, 2014a; conditions: Cell-based; ref PubChem, 2014a; cited from earlier work
# [3] = molecular target: T1, mCMKLR1 (Mus musculus, UniProt P97468); test: Transwell chemotaxis of mCMKLR1/L1.2 transfectants to chemerin
# T1 sequence (P97468 1-371): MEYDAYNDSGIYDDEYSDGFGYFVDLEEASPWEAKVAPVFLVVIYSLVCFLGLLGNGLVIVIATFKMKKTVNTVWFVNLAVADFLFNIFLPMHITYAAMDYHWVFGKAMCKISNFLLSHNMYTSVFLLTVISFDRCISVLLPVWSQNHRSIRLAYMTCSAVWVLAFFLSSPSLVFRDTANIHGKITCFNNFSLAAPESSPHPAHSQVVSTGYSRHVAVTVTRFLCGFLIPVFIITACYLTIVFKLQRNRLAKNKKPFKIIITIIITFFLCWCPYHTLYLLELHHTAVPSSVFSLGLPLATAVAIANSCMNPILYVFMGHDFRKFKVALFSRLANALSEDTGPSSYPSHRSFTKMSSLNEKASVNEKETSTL
# [4] = test system: Cytochrome p450 2D6; conditions: cited from earlier work
# [5] = test system: C57BL/6 mice; test: Recall proliferation and cytokine (ELISA) responses of LN and spleen cells from treated MOG35-55/CFA-immunized mice; conditions: in vivo treatment over a 10-day period; 72 h restimulation
# [6] = molecular target: Vitamin D receptor; design: method as in PubChem, 2014a; conditions: Purified protein (binding); ref PubChem, 2014a; cited from earlier work
# [7] = test system: carnitine acetyletransferase; design: method as in PMID 3174803; conditions: cited from earlier work
# [8] = test system: C57BL/6 mice; test: EAE induced by adoptive transfer of MOG-reactive lymphocytes in C57BL/6 mice; type: in vivo, mouse
# [9] = test system: p53 mutants; design: method as in PubChem, 2014a; conditions: Cell-based (process); ref PubChem, 2014a; cited from earlier work
# [10] = molecular target: Acetylcholinesterase; design: method as in Sastry et al., 1988a; ref 19; conditions: Purified enzyme; ref Sastry et al., 1988a; cited from earlier work
# [11] = test system: GPR154; design: method as in PubChem, 2014b; ref 24; conditions: Cell-based (GPCR); neuropeptide S-induced signaling; ref PubChem, 2014b; cited from earlier work
# [12] = molecular target: CXCR7 (Homo sapiens, UniProt P25106); test: β-arrestin2 (β-ARR2) assay, CXCR7/CHO cells, CXCL12-stimulated; conditions: 3 µM
# Chain of CXCR7 (P25106 whole entry, species assumed): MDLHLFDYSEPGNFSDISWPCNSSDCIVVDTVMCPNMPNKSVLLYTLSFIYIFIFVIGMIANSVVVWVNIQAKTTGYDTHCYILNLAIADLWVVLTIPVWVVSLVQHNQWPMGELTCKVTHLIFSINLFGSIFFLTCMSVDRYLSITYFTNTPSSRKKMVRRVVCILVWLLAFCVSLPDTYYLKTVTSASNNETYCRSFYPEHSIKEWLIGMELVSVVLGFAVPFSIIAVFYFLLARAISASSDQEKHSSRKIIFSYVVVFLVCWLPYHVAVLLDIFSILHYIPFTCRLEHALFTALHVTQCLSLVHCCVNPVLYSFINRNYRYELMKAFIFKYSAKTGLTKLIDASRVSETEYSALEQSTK
# [13] = test system: Cytochrome p450 3A4; conditions: cited from earlier work
# [14] = test system: Acetylcholine muscarinic M1 receptor; design: method as in PubChem, 2014a; ref 25; conditions: Cell-based (GPCR); Tested up to 35 µM; ref PubChem, 2014a; cited from earlier work
# [15] = test system: CMKLR1 KO mice; test: EAE induced by active immunization in CMKLR1 KO mice; type: in vivo, mouse; conditions: 10 mg/kg daily s.c.
# [16] = molecular target: Cholinesterase; design: method as in Sastry et al., 1988a; ref 19; conditions: Purified enzyme; ref Sastry et al., 1988a; cited from earlier work
# [17] = test system: CCRL2 KO mice; test: EAE induced by active immunization in CCRL2 KO mice; type: in vivo, mouse
# [18] = molecular target: 15-Hydroxyprostaglandin dehydrogenase; design: method as in PubChem, 2014b; conditions: Purified enzyme; ref PubChem, 2014b; cited from earlier work
structure (smiles),measurement,setting,value
"C[N+](C)(C)CCC(=O)c1cccc2ccccc12.[I-] [α-NETA, 2-(α-naphthoyl)ethyltrimethylammonium iodide]",IC50,[1],1.3 µM
same,IC50,[2],6.3 µM
same,IC50,[3],5 ± 0.4 µM
same,IC50,[4],≥ 10 µM
same,MOG35-55 recall proliferation and IFNγ and IL-17 production of LN and spleen cells,[5],comparable to vehicle-treated mice
same,IC50,[6],2 µM
same,activity against carnitine acetyletransferase,[7],inactive
same,suppression of clinical signs beyond first appearance of disease in control mice,[8]; 10 mg/kg daily s.c.,completely suppressed clinical signs for an average of six days
same,severity of clinical disease,"[8]; 10 mg/kg daily s.c., day 15–19",significantly reduced
same,reduction of the incidence of EAE by day 24,"[8]; 10 mg/kg daily s.c., did not reach statistical significance",~25%
same,ability of MOG-reactive lymphocytes from treated donor mice to induce EAE by passive transfer,[8]; donor mice treated once daily for ten days,fully capable of inducing EAE by passive transfer
same,IC50,[9],13 µM
same,IC50,[10],300 µM
same,IC50,[11],32 µM
same,inhibition of CXCL12-triggered β-arrestin2 association with CXCR7,[12],moderately inhibited
same,IC50,[13],0.2 µM
same,"IC50 (µM), Acetylcholine muscarinic M1 receptor",[14],Inactive ^k
same,disease incidence by day 20,[15]; not statistically significant,40%
same,Mean day of onset (SEM),"[15]; only animals that developed EAE, not significant (p = 0.18)",14.3 (1.5) ^ns
same,IC50,[16],84 µM
same,suppression of clinical signs beyond first appearance of disease in control CCRL2 KO mice,[17]; 10 mg/kg daily s.c.,completely and significantly suppressed clinical signs for an average of four days
same,treated mice that did not develop EAE by day 20,"[17]; CCRL2 KO mice, 10 mg/kg daily s.c.",40%
same,severity of clinical disease,"[17]; CCRL2 KO mice, days 8-15 (except for day 10)",significantly reduced
same,IC50,[18],14 µM
